One series has as its target T1, Co-CA (Coccomyxa β-CA) (Coccomyxa sp. PA, UniProt Q96554).
T1 construct: zinc enzyme, homotetramer (dimer of dimers); residues 6-227 modelled
The series can be described thus: X-ray crystal structure of co-crystal, […] Å. Format: binding. The settings on record: 15 mM NaSCN, 1.8 M NaKPO4 pH 7.2; N bound to active-site zinc (2.0 Å); also at dimer interface.

Series [1] concerns the molecule itself. The series can be described thus: crystal structure; Co-CA at ~35 mg/ml in 10 mM Tris-HCl pH 7.4, hanging drop at 18°C, 1.6-2.3 M Na,KPO4 pH 7.2, with acetazolamide, phosphate, thiocyanate, azide or iodide; space group P43212; one dimer in the asymmetric unit, tetramer by a crystallographic 2-fold.

For the molecule `N#CS` [SCN, thiocyanate], the “X-ray crystal structure of co-crystal, 2.5 Å” value on Co-CA (Coccomyxa β-CA) was “Azide and thiocyanate ions in the active site of Co-CA were clearly defined”.

B1: β-carbonic anhydrase from Coccomyxa sp. (enzyme, UniProt Q96554 1-227, looked up)
chain: MSAKDTADLSPLLEANRKWADECAAKDSTYFSKVAGSQAPEYLYIGCADSRVSPAQLFNMAPGEVFVQRNVGNLVSNKDLNCMSCLEYTVDHLKIKHILVCGHYNCGACKAGLVWHPKTAGVTNLWISDVREVRDKNAAKLHGLSADDAWDKMVELNVEAQVFNVCASPIVQAAWARGQPLSVHGIVYTPGTGLVKELIKPITGMEDAGALLRADLKQHCFFSESLA
notes: β-carbonic anhydrase of Coccomyxa sp., 227 amino acids, GenBank AAC33484.1; Met-1 to Asp-5 not seen in the electron density, models hold residues 6-227; One zinc ion per monomer; crystallised with acetazolamide, phosphate, thiocyanate, azide or iodide; also called Co-CA; Coccomyxa β-CA; source: E. coli, over-expressed, purified (amylose-resin column, Q-Sepharose Fast Flow)
Regarding B1, the “stoichiometry N” value in series [1] worked out at 4.

A word on the stoichiometry N: it is a count of units in the complex or per binding partner.

The values are drawn from article PMC3230598, “Structural Studies of β-Carbonic Anhydrase from the Green Alga Coccomyxa: Inhibitor Complexes with Anions and Acetazolamide” (PLoS ONE, 2011).
